{"source": "patent US20170035894A1", "about": "“DRUG DELIVERY CONJUGATES FOR TREATING RESISTANT CANCER AND FOR USE IN COMBINATION THERAPY” (ENDOCYTE, INC., priority 2014, published 2017)", "key": {"[1]": {"molecular_target": "T1, folate receptors (FRs) on KB cells (Homo sapiens, UniProt P15328)", "T1 construct": "FR-positive KB cells were heavily seeded into 24-well cell culture plates; endogenous in cells; host or cells: KB cells (human cervical carcinoma)", "T1 sequence (P15328 25-234)": "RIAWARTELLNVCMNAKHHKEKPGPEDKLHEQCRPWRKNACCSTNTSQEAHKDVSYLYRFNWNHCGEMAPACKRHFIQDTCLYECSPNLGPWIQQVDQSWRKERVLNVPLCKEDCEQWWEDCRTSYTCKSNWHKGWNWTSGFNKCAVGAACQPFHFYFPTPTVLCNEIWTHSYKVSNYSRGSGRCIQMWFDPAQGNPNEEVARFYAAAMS", "assay": "Relative Affinity Assay (3H-folic acid displacement)", "assay_type": "binding", "protocol": "METHOD. Relative Affinity Assay. […] Briefly, FR-positive KB cells were heavily seeded into 24-well cell culture plates and allowed to adhere to the plastic for 18 h. Spent incubation media was replaced in designated wells with folate-free RPMI (FFRPMI) supplemented with 100 nM ^3H-folic acid in the absence and presence of increasing concentrations of test article or folic acid. Cells were incubated for 60 min at 37° C. and then rinsed 3 times with PBS, pH 7.4. […] Cell lysates were then collected and added to individual vials containing 5 mL of scintillation cocktail, and then counted for radioactivity. Negative control tubes contained only the ^3H-folic acid in FFRPMI (no competitor). Positive control tubes contained a final concentration of 1 mM folic acid, and CPMs measured in these samples (representing non-specific binding of label) were subtracted from all samples."}, "KB cells": {"system": "KB cells", "assay_type": "cell-based, human", "protocol": "METHOD. Inhibition of Cellular DNA Synthesis. The compounds described herein were evaluated using an in vitro cytotoxicity assay that predicts the ability of the drug to inhibit the growth of folate receptor-positive cells, such as KB cells, RAW264.7 macrophages, and the like. It is to be understood that the choice of cell type can made on the basis of the susceptibility of those selected cells to the drug that forms the conjugate. The test compounds were comprised of folate linked to a respective chemotherapeutic drug, as prepared according to the processes described herein. The test cells were exposed to varying concentrations of folate-drug conjugate, and also in the absence or presence of at least a 100-fold excess of folic acid to assess activity as being specific to folate receptor mediation.\nConjugates of cytotoxic drugs described herein are active against KB cells. The activity is mediated by the folate receptor as indicated by competition experiments using co-administered folic acid. KB cells were exposed for up to 7 h at 37° C. to the indicated concentrations of folate-drug conjugate in the absence or presence of at least a 100-fold excess of folic acid. The cells were then rinsed once with fresh culture medium and incubated in fresh culture medium for 72 hours at 37° C. Cell viability was assessed using a ^3H-thymidine incorporation assay. For compounds described herein, dose-dependent cytotoxicity was generally measurable, and in most cases, the IC50 values (concentration of drug conjugate required to reduce ^3H-thymidine incorporation into newly synthesized DNA by 50%) are in the low nanomolar range.\nMETHOD. In vitro activity against various cancer cell lines. IC50 values were generated for various cell lines. Cells were heavily seeded in 24-well Falcon plates and allowed to form nearly confluent monolayers overnight. Thirty minutes prior to the addition of the test compound, spent medium was aspirated from all wells and replaced with fresh folate-deficient RPMI medium (FFRPMI). A subset of wells were designated to receive media containing 100 μM folic acid. The cells in the designated wells were used to determine the targeting specificity. Without being bound by theory it is believed herein that the cytotoxic activity produced by test compounds in the presence of excess folic acid, i.e. where there is competition for FR binding, corresponds to the portion of the total activity that is unrelated to FR-specific delivery. Following one rinse with 1 mL of fresh FFRPMI containing 10% heat-inactivated fetal calf serum, each well received 1 mL of medium containing increasing concentrations of test compound (4 wells per sample) in the presence or absence of 100 μM free folic acid as indicated. Treated cells were pulsed for 2 h at 37° C., rinsed 4 times with 0.5 mL of media, and then chased in 1 mL of fresh medium up to 70 h. Spent medium was aspirated from all wells and replaced with fresh medium containing 5 μCi/mL ^3H-thymidine. Following a further 2 h 37° C. incubation, cells were washed 3 times with 0.5 mL of PBS and then treated with 0.5 mL of ice-cold 5% trichloroacetic acid per well. After 15 min, the trichloroacetic acid was aspirated and the cell material solubilized by the addition of 0.5 mL of 0.25 N sodium hydroxide for 15 min. A 450 μL aliquot of each solubilized sample was transferred to a scintillation vial containing 3 mL of Ecolume scintillation cocktail and then counted in a liquid scintillation counter. Final results are expressed as the percentage of ^3H-thymidine incorporation relative to untreated controls."}, "[2]": {"system": "KB-CR2000 (cisplatin resistant) tumors", "assay": "Cisplatin-resistant KB-CR2000 tumor model", "assay_type": "in vivo, mice", "source_text": "METHOD. Human cisplatin-resistant cell line. […] In addition, regrowth of the tumor was only observed in 1/5 test animals."}, "ST502 tumors": {"system": "ST502 tumors", "assay": "TNBC PDX tumor model", "assay_type": "in vivo, Balb/c nu/nu mice", "conditions": "combined with Eribulin mesylate 1 mg/kg", "protocol": "(§1) Female Balb/c nu/nu mice were fed ad libitum with folate-deficient chow (Harlan diet #TD01013) for the duration of the experiment. Primary human Endometrial model ST040, TNBC models 5T502 and ST738 and Ovarian model ST024 fragments (2-4 mm in diameter) were inoculated subcutaneously at the right flank of each mouse. Mice were randomized into 6 experimental groups of 5 or 3 mice each and test articles were injected through the lateral tail vein under sterile conditions in a volume of 200 μL of phosphate-buffered saline (PBS).\n(§2) Growth of each s.c. tumor was followed by measuring the tumor two times per week until a volume of 1200 mm^3 was reached. Tumors were measured in two perpendicular directions using Vernier calipers, and their volumes were calculated as 0.5×L×W^2, where L=measurement of longest axis in mm and W=measurement of axis perpendicular to L in mm."}, "ST738 tumors": {"system": "ST738 tumors", "assay": "TNBC PDX tumor model", "assay_type": "in vivo, Balb/c nu/nu mice", "conditions": "combined with Eribulin mesylate 1 mg/kg", "protocol": "as §1, §2"}, "[3]": {"conditions": "difference in IC50 between competed and non-competed group"}, "[4]": {"conditions": "2 μmol/kg i.v. TIW 2 weeks, nearly 70 day observation period"}, "[5]": {"conditions": "EC1456 2 μmol/kg two times a week for two weeks"}, "[6]": {"conditions": "EC1456 4 μmol/kg once a week for two weeks"}}, "note": "Where two headings read alike, the source gives them in different places."}
{"smiles": "CCCC(=O)OCN(C(=O)[C@@H](NC(=O)[C@H]1CCCCN1C)C(C)CC)[C@H](C[C@@H](OC(C)=O)c1nc(C(=O)N[C@@H](Cc2ccc(O)cc2)C[C@H](C)C(=O)NNC(=O)OCCSSC[C@@H](NC(=O)[C@H](CCC(=O)NC[C@H](O)[C@@H](O)[C@H](O)[C@H](O)CO)NC(=O)[C@@H](CCC(=O)O)NC(=O)[C@H](CCC(=O)NC[C@H](O)[C@@H](O)[C@H](O)[C@H](O)CO)NC(=O)[C@@H](CCC(=O)O)NC(=O)[C@H](CCC(=O)NC[C@H](O)[C@@H](O)[C@H](O)[C@H](O)CO)NC(=O)CC[C@@H](NC(=O)c2ccc(NCc3cnc4nc(N)[nH]c(=O)c4n3)cc2)C(=O)O)C(=O)O)cs1)C(C)C", "note": "(stereo in doubt) [EC1456]", "values": [{"measurement": "Relative Affinity (a)", "setting": "[1]", "value": 0.27}, {"measurement": "IC50", "setting": "KB cells; FR expression +++, read-out: Activity (IC50)", "value": 2.3, "unit": "nM"}, {"measurement": "IC50", "setting": "KB cells; IC50 when competed with excess folic acid, read-out: 50% competition (nM) (c)", "value": 1420, "unit": "nM"}, {"measurement": "IC50", "setting": "KB cells; as determined by thymidine incorporation, read-out: In vitro IC50 (nM) (b)", "value": 1.5, "unit": "nM"}, {"measurement": "In vitro specificity (fold) (d)", "setting": "KB cells; [3]", "value": 944, "unit": "fold"}, {"measurement": "specificity for the folate receptor as determined by folic acid competition", "setting": "KB cells; [3]", "value": "ca. 1000 fold"}, {"measurement": "Competable up to 100 nM", "setting": "KB cells; folic acid competition", "value": "Yes"}, {"measurement": "improvement in specificity compared to comparator compound EC0531", "setting": "KB cells; folic acid competition", "value": 4, "unit": "fold"}, {"measurement": "regrowth of the tumor, test animals", "setting": "[2]; [4]", "value": "1/5"}, {"measurement": "test animals cured (no regrowth)", "setting": "[2]; [4]", "value": "4/5"}, {"measurement": "CRs", "setting": "[2]; 2 μmol/kg i.v. three times per week, 2 weeks", "value": "5/5"}, {"measurement": "animals exhibiting CRs", "setting": "ST502 tumors; [5]", "value": 5, "unit": "animals"}, {"measurement": "animals exhibiting cures", "setting": "ST502 tumors; [5]", "value": 2, "unit": "animals"}, {"measurement": "animals exhibiting CR's", "setting": "ST502 tumors; [6]", "value": 3, "unit": "animals"}, {"measurement": "animals exhibiting PR's", "setting": "ST502 tumors; [6]", "value": 4, "unit": "animals"}, {"measurement": "animals exhibiting cures", "setting": "ST738 tumors; [5]", "value": 7, "unit": "animals"}, {"measurement": "animals exhibiting PR's", "setting": "ST738 tumors; [6]", "value": 2, "unit": "animals"}, {"measurement": "animals exhibiting cures", "setting": "ST738 tumors; [6]", "value": 4, "unit": "animals"}]}
